Measurements reported in patent publication US9000162B2, “5,8-difluoro-4-(2-(4-(heteroaryloxy)-phenyl)ethylamino)quinazolines and their use as agrochemicals” (Dow AgroSciences LLC, priority 2008, dated 2015).

How the values were obtained:
Format in all cases: in vivo
[1] = system: Pseudoperonospora cubensis (PSPECU); assay: Cucumber downy mildew foliar protectant test; settings: 200 ppm foliar, inoculated one day after treatment, read-out: Activity against fungal diseases PSPECU
In short: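 Cucumber seedlings, first true leaf 20-80% expanded, were sprayed to wetness with formulated compound and inoculated next day with aqueous sporangia suspension. Severity was converted to percent control versus untreated inoculated plants: ***=80-100%, **=50-79%, *=0-49%.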

[2] = system: Puccinia recondita tritici (PUCCRT); assay: Leaf rust of wheat foliar protectant test; settings: 200 ppm foliar, inoculated one day after treatment, read-out: Activity against fungal diseases PUCCRT
In short: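 Wheat seedlings (3–8 per pot) were sprayed to wet with formulated compound and inoculated the next day with an aqueous Puccinia recondita tritici spore suspension. Severity was converted to % control versus untreated inoculated plants and rated *** 80–100%, ** 50–79%, * 0–49%.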

[3] = system: Magnaporthe grisea = Pyricularia oryzae (PYRIOR); assay: whole plant or invertebrate; settings: foliar, read-out: Activity against fungal diseases PYRIOR
[4] = system: Septoria tritici (SEPTTR); assay: Septoria blotch of wheat foliar protectant test; settings: Zymoseptoria tritici, read-out: Activity against fungal diseases SEPTTR; for pest or weed control at 200 ppm: 200 ppm foliar, inoculated one day after treatment; for pest or weed control at 25 ppm: foliar, Tested at 25 ppm (footnote b)
In short: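 Wheat seedlings (3-10 per pot) were sprayed to wet with formulated compound and inoculated next day with Septoria tritici spores. Plants then had 1 day in a dark dew chamber and 3 days in a lighted one before greenhouse incubation. Severity versus untreated inoculated plants gave percent control, scored *** 80-100%, ** 50-79%, * 0-49%.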

| SMILES | pest or weed control at 200 ppm [1] | pest or weed control at 200 ppm [2] | pest or weed control at 200 ppm [3] | pest or weed control at 200 ppm [4] | pest or weed control at 25 ppm [4] |
| --- | --- | --- | --- | --- | --- |
| [O-][n+]1ccc(Oc2ccc(CCNc3ncnc4c(F)ccc(F)c34)cc2)c(C(F)(F)F)c1 [Compound 84] | 80 to 100% | 80 to 100% | 80 to 100% | 80 to 100% |  |
| COc1cc(C(C)(F)F)cc(Oc2ccc(CCNc3ncnc4c(F)ccc(F)c34)cc2)n1 [Compound 11] | 80 to 100% | 80 to 100% | 50 to 79% | 80 to 100% |  |
| [O-][n+]1ccc(C(F)(F)F)cc1Oc1ccc(CCNc2ncnc3c(F)cc(F)c(F)c23)cc1 [Compound 75] | 80 to 100% | 80 to 100% | 80 to 100% | 80 to 100% |  |
| CC(Nc1ncnc2c(F)ccc(F)c12)c1ccccc1 (stereo not shown) [Compound 119] | 80 to 100% | 80 to 100% | 80 to 100% | 80 to 100% |  |
| [O-][n+]1ccc(C(F)(F)F)cc1Oc1ccc(CCNc2ncnc3c(F)ccc(F)c23)cc1 [Compound 54] | 80 to 100% | 80 to 100% | 80 to 100% | 80 to 100% |  |
| N#Cc1c(Cl)cncc1Oc1ccc(CCNc2ncnc3c(F)ccc(F)c23)cc1 [Compound 129] | 80 to 100% | 80 to 100% | 80 to 100% | 50 to 79% |  |
| Cc1cc(CCNc2ncnc3c(F)ccc(F)c23)ccc1Oc1ccnc(C(F)(F)F)c1 [Compound 82] | 80 to 100% | 80 to 100% | 80 to 100% | 80 to 100% |  |
| COc1ccc(CCNc2ncnc3c(F)ccc(F)c23)c(F)c1 [Compound 72] | 80 to 100% | 80 to 100% | 80 to 100% |  | 0 to 49% |
| CCc1cc(CCNc2ncnc3c(F)ccc(F)c23)ccc1Oc1cc(C(F)(F)F)ccn1 [Compound 66] | 80 to 100% | 80 to 100% | 80 to 100% | 80 to 100% |  |
| Cc1cc(Oc2cc(C(F)(F)F)ncn2)ccc1CCNc1ncnc2c(F)ccc(F)c12 [Compound 118] | 80 to 100% | 80 to 100% | 80 to 100% |  | 80 to 100% |
| Fc1ccc(F)c2c(NCCc3ccc(Oc4ccnc(C(F)(F)F)n4)cc3)ncnc12 [Compound 114] | 80 to 100% | 80 to 100% | 80 to 100% |  | 50 to 79% |
| Fc1ccc(F)c2c(NCCc3ccc(Oc4cnccc4C(F)(F)F)cc3)ncnc12 [Compound 43] | 80 to 100% | 80 to 100% | 50 to 79% | 80 to 100% |  |
| Cc1cc(CCNc2ncnc3c(F)ccc(F)c23)ccc1Oc1cc(C(C)(F)F)ccn1 [Compound 64] | 80 to 100% | 80 to 100% | 80 to 100% | 80 to 100% |  |
| Cc1cc(O)ccc1CCNc1ncnc2c(F)ccc(F)c12 [Compound 51] | 0 to 49% | 0 to 49% | 50 to 79% | 0 to 49% |  |
| Fc1ccc(F)c2c(NCCc3ccc(Oc4ccnc(Cl)c4)cc3)ncnc12 [Compound 107] | 80 to 100% | 80 to 100% | 80 to 100% |  | 80 to 100% |
| Fc1cc(CCNc2ncnc3c(F)ccc(F)c23)ccc1Oc1cc(C(F)(F)F)ncn1 [Compound 132] | 80 to 100% | 80 to 100% | 80 to 100% | 80 to 100% |  |
| CC(F)(F)c1cc[n+]([O-])c(Oc2ccc(CCNc3ncnc4c(F)ccc(F)c34)cc2)c1 [Compound 10] | 80 to 100% | 80 to 100% | 50 to 79% | 80 to 100% |  |
| COc1cc(CCNc2ncnc3c(F)ccc(F)c23)ccc1Oc1ncc(F)c(C(F)(F)F)c1F [Compound 53] | 80 to 100% | 80 to 100% | 80 to 100% | 80 to 100% |  |
| COc1cc(CCNc2ncnc3c(F)ccc(F)c23)ccc1O [Compound 14] | 50 to 79% | 0 to 49% | 0 to 49% |  | 0 to 49% |
